Experimental data: PubChem BioAssay (NCI)
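Where inhibition never reached the appropriate level, the endpoint shown equals the highest concentration tested. Otherwise, values were interpolated linearly from a five-concentration, 48-hour dose response in 96-well plates. Definition used: TGI = concentration required for complete inhibition of growth.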

Experiments:
Assay in all cases: NCI anticancer screen, dose series, 48 h
UACC-62 melanoma = test system: UACC-62 melanoma
RXF 393 renal = test system: RXF 393 renal
SW-620 colon = test system: SW-620 colon
HOP-62 NSCLC = test system: HOP-62 NSCLC
SF-268 CNS = test system: SF-268 CNS
U251 CNS = test system: U251 CNS
NCI-H522 lung = test system: NCI-H522 lung
HOP-92 NSCLC = test system: HOP-92 NSCLC
MALME-3M melanoma = test system: MALME-3M melanoma
K-562 leukemia = test system: K-562 leukemia

Compound | TGI (UACC-62 melanoma) | TGI (RXF 393 renal) | TGI (SW-620 colon) | TGI (HOP-62 NSCLC) | TGI (SF-268 CNS) | TGI (U251 CNS) | TGI (NCI-H522 lung) | TGI (HOP-92 NSCLC) | TGI (MALME-3M melanoma) | TGI (K-562 leukemia)
COc1cc(C=O)cc(C=Nc2ccc(Br)cc2)c1O | 50.1 µM | 15 µM | > 100 µM | 55.9 µM | 27.8 µM | > 100 µM | 23.5 µM | 39.6 µM | 17.2 µM | > 100 µM
CC(C)Oc1cccc(N2C(CCc3c[nH]c4ccc(Br)cc34)=NS(=O)(=O)c3cnccc32)c1 | > 100 µM | > 100 µM | > 100 µM | > 100 µM | > 100 µM | > 100 µM | > 100 µM | > 100 µM | > 100 µM | > 100 µM
O=c1c2ccc(Cl)cc2oc2c(CSc3ccccc3)cccc12 | > 83.3 µM | > 100 µM | > 31.6 µM | > 100 µM | > 100 µM | > 100 µM | > 53.1 µM | > 74.9 µM | > 61.1 µM | > 100 µM
COc1cc2c(cc1O)NC(=O)[C@@H]1C[C@@H](O)CN1C2=O | > 100 µM | > 100 µM | > 100 µM | > 100 µM | > 100 µM | > 100 µM | > 100 µM | > 100 µM | > 100 µM | > 100 µM
O=C(N/N=C/c1ccccc1)c1c(F)c(F)c(F)c(F)c1F | > 100 µM | > 100 µM | > 100 µM | > 100 µM | > 100 µM | > 100 µM | 49.2 µM | > 100 µM | > 100 µM | > 100 µM
CN(C)c1cccc2c(S(=O)(=O)NCCN)cccc12 | > 100 µM | > 100 µM | > 100 µM | > 100 µM | > 100 µM | > 100 µM | > 100 µM | > 100 µM | > 100 µM | > 100 µM
BrC1(c2ccccc2)C[n+]2c(-c3ccccc3)cc(-c3ccccc3)cc2-c2ccccc21 (configuration not stated) | – | 0.635 µM | 11.4 µM | 7.41 µM | 2.96 µM | 1.2 µM | 11.3 µM | 3.7 µM | 13.2 µM | 1.48 µM
CC1(C)C(=O)/C(=C/c2ccccc2)C(C)(C)C1(C)C | > 100 µM | > 100 µM | > 100 µM | 98.9 µM | – | > 100 µM | > 100 µM | > 100 µM | > 100 µM | > 100 µM
C/C(=N/NC(=S)Nc1ccc(C)cc1)c1ccccn1 | 2.64 µM | 11 µM | 18.6 µM | 5.55 µM | 16.4 µM | 14.8 µM | 12 µM | 12.5 µM | 8.71 µM | 6.09 µM
COc1ccc(C2C(=O)c3ccc(OC)cc3OC2c2cccnc2)cc1 (configuration not stated) | > 100 µM | > 100 µM | > 100 µM | > 100 µM | > 100 µM | > 100 µM | > 100 µM | 97.1 µM | > 100 µM | > 100 µM
CC1=NC(=N)N=C(C)C1N=Nc1ccc2nc(C)[nH]c2c1 (configuration not stated) | > 100 µM | > 100 µM | > 100 µM | > 100 µM | > 100 µM | > 100 µM | > 100 µM | > 100 µM | > 100 µM | > 100 µM
Cc1ccc(S(=O)(=O)NC(=O)Nc2ccc(C(=O)O)cc2)cc1 | > 100 µM | > 100 µM | > 100 µM | > 100 µM | > 100 µM | > 100 µM | > 100 µM | > 100 µM | > 100 µM | > 100 µM
CC(=O)c1c(-c2ccc(Cl)cc2)c(C#N)c(=S)n(C2OC(CO)C(O)C(O)C2O)c1C (configuration not stated) | 57.8 µM | > 100 µM | – | > 100 µM | > 100 µM | > 100 µM | > 100 µM | 65.6 µM | > 100 µM | > 100 µM
CC(=O)O[C@H]1CC[C@@H](OC(C)=O)[C@H]2[C@H](O)[C@H](O)[C@@H]1n1c(=O)n(-c3ccccc3)c(=O)n12 | > 100 µM | > 100 µM | > 100 µM | > 100 µM | > 100 µM | > 100 µM | > 100 µM | > 100 µM | > 100 µM | > 100 µM
CC(C)CNP(=O)(NCC(C)C)Oc1ccc(CC(NC(=O)OCc2ccccc2)C(=O)OCc2ccccc2)cc1 (configuration not stated) | 34.1 µM | 36.2 µM | 40.2 µM | 30.8 µM | 33 µM | 30.1 µM | 30.5 µM | > 100 µM | 34.9 µM | 59.4 µM
Cc1cc(-c2ccc(N=Nc3ccc4c(S(=O)(=O)O)cc(S(=O)(=O)O)c(N)c4c3O)c(C)c2)ccc1N=Nc1ccc2c(S(=O)(=O)O)cc(S(=O)(=O)O)c(N)c2c1O | > 100 µM | > 100 µM | > 100 µM | > 100 µM | > 100 µM | > 100 µM | > 100 µM | > 100 µM | > 100 µM | > 100 µM
CCc1c(O)nc(Nc2nc3ccccc3[nH]2)[nH]c1=O | > 100 µM | > 100 µM | > 100 µM | > 100 µM | > 100 µM | > 100 µM | > 100 µM | > 100 µM | > 100 µM | > 100 µM
CN1C(c2ccccc2)CC(O)CC1c1ccccc1 (configuration not stated) | > 100 µM | > 100 µM | > 100 µM | > 100 µM | > 100 µM | > 100 µM | > 100 µM | > 100 µM | > 100 µM | > 100 µM
Cc1ccc(S(=O)(=O)N/N=c2/sc3ccccc3n2C)cc1 | > 100 µM | > 100 µM | > 100 µM | > 100 µM | > 100 µM | > 100 µM | > 100 µM | > 100 µM | > 100 µM | > 100 µM
Cc1nc2sccn2c1C(=O)NNC(N)=S | > 100 µM | > 100 µM | > 100 µM | > 100 µM | > 100 µM | > 100 µM | > 100 µM | > 100 µM | > 100 µM | > 100 µM
O=C1/C(=C\c2cccc(Oc3ccccc3)c2)SC(c2ccccc2)N1c1cc(Cl)ccc1Cl (configuration not stated) | > 100 µM | 76.5 µM | 41.6 µM | > 100 µM | 58.6 µM | > 100 µM | 53 µM | 74.4 µM | 89.7 µM | > 100 µM
COc1c(OC2OC(CO)C(O)C(O)C2O)cc2c(c1OC)-c1ccc(OC)c(=O)cc1C(NC(C)=O)CC2 (configuration not stated) | > 100 µM | > 100 µM | > 100 µM | > 100 µM | > 100 µM | > 100 µM | > 100 µM | > 100 µM | > 100 µM | > 100 µM
